Source: PubChem BioAssay (NCI)
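Cells were grown in 96-well plates and exposed to each compound for 48 hours at five concentrations; endpoints were interpolated linearly between bracketing concentrations, or set to the highest concentration if not reached. GI50 = concentration required for 50% inhibition of growth. TGI denotes the concentration required for complete inhibition of growth.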 *1 amine or outer side, *2 acyl side, *3 side chain or, on linkers, in order; H or OH if unused. Where a SMILES comes first, the peptide text is derived from it. Bridges are numbered along the chain shown (N, C = ends). [ ]: non-standard residue; d: D form. ξ: configuration not given here. X4 = CCC(C)C(N[*:1])C(O)CC(=O)O[C@H](C(=O)C(C)C(=O)[*:2])C(C)C; NMeY = CN[C@@H](Cc1ccc(O)cc1)C(=O)O; ξNMeL = CNC(CC(C)C)C(=O)O; ξT = CC(O)C(N)C(=O)O

Experiments:
Experiment in all cases: inhibition of tumour cell growth, NCI panel, 48 h
T-47D breast = tested on: T-47D breast
BT-549 breast = tested on: BT-549 breast
MCF7 breast = tested on: MCF7 breast
MDA-N = tested on: MDA-N
DMS 273 small cell lung = tested on: DMS 273 small cell lung
XF 498 CNS = tested on: XF 498 CNS

Row | Compound | GI50 (T-47D breast) | TGI (T-47D breast) | GI50 (BT-549 breast) | TGI (BT-549 breast) | GI50 (MCF7 breast) | TGI (MCF7 breast) | TGI (MDA-N) | TGI (DMS 273 small cell lung) | TGI (XF 498 CNS)
1 | COc1ccc(/C=C/c2cc(OC)c(OC)c(OC)c2)cc1NC(=O)/C=C/c1ccc(F)cc1 | 5.51 µM | > 100 µM | 4.49 µM | > 100 µM | 3.34 µM | > 100 µM |  |  | 
2 | C=CC(=O)N1CCCC(n2nc(-c3ccc(Oc4ccccc4)cc3)c3c(N)ncnc32)C1 (configuration not stated) | 2.14 µM | 18.6 µM | 5.85 µM | 18.5 µM | 7.88 µM | 23.9 µM |  |  | 
3 | Cc1ccc(C(=O)c2oc3ccc4c(C)cc(=O)oc4c3c2C)cc1 | 50.1 µM | > 100 µM | 45.6 µM | > 100 µM | 5.95 µM | > 100 µM |  |  | 
4 | COc1cc(OC)c(/C=C/c2ccc3ccccc3[n+]2C)c(OC)c1 | 0.294 µM | 2.83 µM | 0.401 µM | 7.3 µM | 0.841 µM | 10.6 µM |  |  | 
5 | CN(C(=O)c1ccc(Cl)s1)C(=S)N(C)C(=O)c1ccc(Cl)s1 |  | > 10 µM |  | > 10 µM |  | > 10 µM | > 10 µM |  | 
6 | NC(CCCCNC(=O)OCc1ccccc1)C(=O)NC(CCCCNC(=O)OCc1ccccc1)C(=O)ON1C(=O)CCC1=O (configuration not stated) |  | > 100 µM |  | > 100 µM |  | > 100 µM | > 100 µM |  | 
7 | CN(C)c1ccc(/C=C2\Oc3cc(O)ccc3C2=O)cc1 |  | > 100 µM |  | > 100 µM |  | > 100 µM |  |  | 
8 | COC(=O)CCC/C=C\C[C@H]1C=CC(=O)/C1=C/C[C@@H](O)CCc1cccc(C(F)(F)F)c1 | 3.45 µM | 17 µM | 2.68 µM | 9.25 µM | 0.775 µM | 12.9 µM |  |  | 
9 | O=C(Nc1ccc(Cl)cc1)Nc1ccc(Cl)c(Cl)c1 | 3.05 µM | 30.6 µM |  |  | 2.27 µM | 8.9 µM |  |  | 
10 | COc1cc(-c2nc3ccc(C)cc3[nH]2)ccc1OCC(=O)N=Nc1c(O)[nH]c2ccccc12 |  |  | 2.26 µM | 6.56 µM |  |  |  |  | 
11 | COc1ccc2c(c1)C(=O)CC(N)C2 (configuration not stated) |  | > 100 µM |  | > 100 µM |  | > 100 µM | > 100 µM |  | 
12 | COc1cc(OC2OC(C)C(O)C(O)C2O)cc2oc(-c3ccc(O)cc3)c(CC=C(C)C)c(=O)c12 (configuration not stated) | 8.74 µM | 30.8 µM | 31.2 µM | > 100 µM | 13.9 µM | 48.2 µM |  |  | 
13 | c1cnc2c(c1)-n1cccc1C1(CCSCC1)NN2 |  |  |  |  |  |  |  | > 100 µM | > 100 µM
14 | COc1ccc2c(c1)sc1nc(-c3ccccc3)c(-c3ccsc3)n12 | 6.27 µM | > 100 µM | 6.56 µM | > 100 µM | 3.78 µM | > 100 µM |  |  | 
15 | Clc1nc(Oc2ccccc2)nc(-c2cn(-c3ccccc3)c3ccccc23)n1 | 8.58 µM | 29.5 µM | 17 µM | 35.6 µM | 11.6 µM | 32.5 µM |  |  | 
16 | O=C(Nc1ccccc1C(F)(F)F)c1cccc(NC2=C(Cl)C(=O)N(Cc3ccccc3)C2=O)c1 | 62.7 µM | > 100 µM | 8.25 µM | 45.1 µM | 2.68 µM | 27.1 µM |  |  | 
17 | COc1cc2nc(-c3ccc(C(F)(F)F)cc3)cc(OCCCN3CCOCC3)c2cc1OC | 0.654 µM | 23.8 µM | 5 µM | 20.9 µM | 1.55 µM | 11.7 µM |  |  | 
18 | CC(C)c1ccc(Cc2cnc(NC(=O)c3cc(Br)cs3)s2)cc1 | 4.27 µM | > 100 µM | 3.81 µM | > 100 µM | 1.6 µM | > 100 µM |  |  | 
19 | CCCCCCC/C=C/[C@H]1O[C@]23C(=O)C[C@@]4(C[C@@H](OC5OC(CO)C(O)C(O)C5O)C[C@@H]4[C@H]2C=C1C)OC3=O (some centres not stated) | 0.911 µM | 9.69 µM | 2.06 µM | 12.9 µM | 1.36 µM | 26.9 µM |  |  | 
20 | CCC(C)C1NC(=O)C(NC(=O)C(CC(C)C)N(C)C(=O)[C@@H]2CCCN2)C(C)OC(=O)[C@H](Cc2ccc(OC)cc2)N(C)C(=O)[C@@H]2CCCN2C(=O)[C@H](CC(C)C)NC(=O)C(C)C(=O)[C@H](C(C)C)OC(=O)CC1O (some centres not stated) (H-P[ξNMeL][ξT][X4]LP[NMeY](Me); ester 3-C) |  |  |  | 0.0104 µM |  |  | 0.0107 µM |  | 
21 | Nc1nc(-c2cccc([N+](=O)[O-])c2)c(Br)c(=O)[nH]1 |  | > 100 µM |  | > 63 µM |  | > 65.3 µM |  |  | 
22 | O=c1oc2ccccc2c(O)c1/C=N\c1nc(-c2ccccc2)cs1 |  | 47.1 µM |  |  |  | 14.1 µM | 16 µM |  | 
23 | COc1cc(-c2cnn(C)c2)ccc1Nc1ncc2ccnc(N[C@@H](C)C(C)(C)C)c2n1 | > 100 µM | > 100 µM | > 68.5 µM | > 100 µM | > 63.1 µM | > 100 µM |  |  | 
24 | CC1(C)C2CC(c3ccncc3)ON2C(C)(C)N1O (configuration not stated) |  | > 100 µM |  |  |  | > 100 µM | > 100 µM |  | 
